The structures appear in SMILES notation.

Holding throughout (type): in vivo
The subject of one experiment is Kochia (Kochia scoparia). Description: Test A preemergence. The settings on record: Bassia scoparia, pre-emergence, 240 h. A digest of the protocol: (§1)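 In a loam soil and sand blend, planted seeds got a preemergence directed soil spray, and young plants at the one- to two-leaf stage, 2–10 cm high, got a postemergence application; ~10 d greenhouse hold; injury rated visually, 0 = none, 100 = complete control.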

For experiment [1], the system named is barnyardgrass (Echinochloa crus-galli). Description: Test A preemergence. The settings on record: Echinochloa crus-galli, pre-emergence, 240 h. In outline:
as §1

The subject of experiment [2] is giant foxtail (Setaria faberii). Description: Test A preemergence. The note with it: Setaria faberi, pre-emergence, 240 h. A digest of the protocol: as §1
Experiment [3] deals with ragweed (common ragweed, Ambrosia elatior). Description: Test A preemergence. The settings on record: Ambrosia artemisiifolia, pre-emergence, 240 h. In outline:
as §1

Experiment [4] deals with pigweed (Amaranthus retroflexus). Description: Test A preemergence. The settings on record: Amaranthus retroflexus, pre-emergence, 240 h.
Experiment [5] concerns ryegrass, Italian (Italian ryegrass, Lolium multiflorum). Description: Test A preemergence. The settings on record: Lolium multiflorum, pre-emergence, 240 h. In outline:
as §1

Another experiment concerns corn (Zea mays). Description: Test A postemergence. The settings on record: Zea mays, post-emergence, 240 h, 125 g ai/ha, postemergence, visual injury rating after approximately 10 d; read-out: Corn plant response rating (0 to 100 scale, 0 no effect, 100 complete control). A digest of the protocol:
as §1

Experiment [6] concerns Galium (catchweed bedstraw, Galium aparine). Description: Test A postemergence. The note with it: Galium, post-emergence, 240 h, 125 g ai/ha, postemergence, visual injury rating after approximately 10 d; read-out: Galium plant response rating (0 to 100 scale, 0 no effect, 100 complete control). A digest of the protocol:
as §1

Experiment [7] has as its system barnyardgrass (Echinochloa crus-galli). Description: Test A postemergence. The settings on record: Echinochloa crus-galli, post-emergence, 240 h, 125 g ai/ha, postemergence, visual injury rating after approximately 10 d; read-out: Barnyardgrass plant response rating (0 to 100 scale, 0 no effect, 100 complete control). A digest of the protocol: as §1
Experiment [8] relates to wheat (Triticum aestivum). Description: Test A postemergence. The note with it: Triticum aestivum, post-emergence, 240 h, 125 g ai/ha, postemergence, visual injury rating after approximately 10 d; read-out: Wheat plant response rating (0 to 100 scale, 0 no effect, 100 complete control). In outline: as §1
For experiment [9], the system named is giant foxtail (Setaria faberii). Description: Test A postemergence. The note with it: Setaria faberi, post-emergence, 240 h, 125 g ai/ha, postemergence, visual injury rating after approximately 10 d; read-out: Foxtail, Giant plant response rating (0 to 100 scale, 0 no effect, 100 complete control). In outline:
as §1

Experiment [10] deals with ragweed (common ragweed, Ambrosia elatior). Description: Test A postemergence. The note with it: Ambrosia artemisiifolia, post-emergence, 240 h, 125 g ai/ha, postemergence, visual injury rating after approximately 10 d; read-out: Ragweed plant response rating (0 to 100 scale, 0 no effect, 100 complete control). A digest of the protocol: as §1
In experiment [11] the test system is blackgrass (Alopecurus myosuroides). Description: Test A postemergence. The note with it: Alopecurus myosuroides, post-emergence, 240 h, 125 g ai/ha, postemergence, visual injury rating after approximately 10 d; read-out: Blackgrass plant response rating (0 to 100 scale, 0 no effect, 100 complete control). A digest of the protocol: as §1
Experiment [12] relates to pigweed (Amaranthus retroflexus). Description: Test A postemergence. The settings on record: Amaranthus retroflexus, post-emergence, 240 h, 125 g ai/ha, postemergence, visual injury rating after approximately 10 d; read-out: Pigweed plant response rating (0 to 100 scale, 0 no effect, 100 complete control). A digest of the protocol: as §1
Experiment [13] deals with ryegrass, Italian (Italian ryegrass, Lolium multiflorum). Description: Test A postemergence. The settings on record: Lolium multiflorum, post-emergence, 240 h, 125 g ai/ha, postemergence, visual injury rating after approximately 10 d; read-out: Ryegrass, Italian plant response rating (0 to 100 scale, 0 no effect, 100 complete control). A digest of the protocol: as §1

`CSc1ccccc1NC(=O)[C@H]1C(=O)N(C)C[C@@H]1c1cccc(COC(F)F)c1` [Compound 876]: the pest or weed control at 125 g/ha in the experiment on Kochia (Kochia scoparia) (125 g ai/ha, preemergence, 0 to 100 scale where 0 is no effect and 100 is complete control, read-out: Kochia plant response rating) stood at 0%; in experiment [1] (125 g ai/ha, preemergence, 0 to 100 scale where 0 is no effect and 100 is complete control, read-out: Barnyardgrass plant response rating) it was 60%; in experiment [2] (125 g ai/ha, preemergence, 0 to 100 scale where 0 is no effect and 100 is complete control, read-out: Foxtail, Giant plant response rating) it was 80%; in [3] (125 g ai/ha, preemergence, 0 to 100 scale where 0 is no effect and 100 is complete control, read-out: Ragweed plant response rating), 0%; in experiment [4] (125 g ai/ha, preemergence, 0 to 100 scale where 0 is no effect and 100 is complete control, read-out: Pigweed plant response rating) it was 0%; in experiment [5] (125 g ai/ha, preemergence, 0 to 100 scale where 0 is no effect and 100 is complete control, read-out: Ryegrass, Italian plant response rating) it was 0%. Also, the pest or weed control at 125 g/ha in experiment [6] amounted to 0%; in [7], 60%; in [9], 40%; in experiment [10], 0%; in [11], 0%; in experiment [12] it was 0%. Further, the pest or weed control at 125 g/ha in [13] amounted to 0%. The pest or weed control at 500 g/ha stood at 70% with Kochia (Kochia scoparia) (500 g ai/ha, Preemergence, visual injury vs untreated controls after approximately 10 d, read-out: Kochia plant response rating (0 to 100 scale where 0 is no effect and 100 is complete control)); 90% in [1] (500 g ai/ha, Preemergence, visual injury vs untreated controls after approximately 10 d, read-out: Barnyardgrass plant response rating (0 to 100 scale where 0 is no effect and 100 is complete control)); 100% in experiment [2] (500 g ai/ha, Preemergence, visual injury vs untreated controls after approximately 10 d, read-out: Foxtail, Giant plant response rating (0 to 100 scale where 0 is no effect and 100 is complete control)); 80% in experiment [3] (500 g ai/ha, Preemergence, visual injury vs untreated controls after approximately 10 d, read-out: Ragweed plant response rating (0 to 100 scale where 0 is no effect and 100 is complete control)); 30% in experiment [4] (500 g ai/ha, Preemergence, visual injury vs untreated controls after approximately 10 d, read-out: Pigweed plant response rating (0 to 100 scale where 0 is no effect and 100 is complete control)); 30% in experiment [5] (500 g ai/ha, Preemergence, visual injury vs untreated controls after approximately 10 d, read-out: Ryegrass, Italian plant response rating (0 to 100 scale where 0 is no effect and 100 is complete control)). The plant injury at 125 g/ha (in the experiment on corn (Zea mays); in [8]) was 0% throughout.

These data come from US12077503B2, “Substituted cyclic amides and their use as herbicides” (FMC CORPORATION, priority 2015, dated 2024).
